# Assay results from ChEMBL document CHEMBL4190237, “Recent developments in biological activities of indanones” (Eur J Med Chem, 2017).
# Key:
# Candida albicans = assay: Antifungal activity against Candida albicans MTCC 227 assessed as zone of inhibition at 50 mg/ml after 24 hrs by agar disc-diffusion method; assay type: functional; settings: MTCC 227, 24 h, read-out: IZ
# Jurkat = assay: Cytotoxicity against human Jurkat cells assessed as cell growth inhibition by MTT assay; assay type: functional, cell-based
# Acetylcholinesterase = Acetylcholinesterase (Electrophorus electricus, UniProt O42275); assay: Inhibition of electric eel AChE using acetylthiocholine iodide as substrate after 1 min by Ellman's method
# Chain of Acetylcholinesterase (O42275 whole entry): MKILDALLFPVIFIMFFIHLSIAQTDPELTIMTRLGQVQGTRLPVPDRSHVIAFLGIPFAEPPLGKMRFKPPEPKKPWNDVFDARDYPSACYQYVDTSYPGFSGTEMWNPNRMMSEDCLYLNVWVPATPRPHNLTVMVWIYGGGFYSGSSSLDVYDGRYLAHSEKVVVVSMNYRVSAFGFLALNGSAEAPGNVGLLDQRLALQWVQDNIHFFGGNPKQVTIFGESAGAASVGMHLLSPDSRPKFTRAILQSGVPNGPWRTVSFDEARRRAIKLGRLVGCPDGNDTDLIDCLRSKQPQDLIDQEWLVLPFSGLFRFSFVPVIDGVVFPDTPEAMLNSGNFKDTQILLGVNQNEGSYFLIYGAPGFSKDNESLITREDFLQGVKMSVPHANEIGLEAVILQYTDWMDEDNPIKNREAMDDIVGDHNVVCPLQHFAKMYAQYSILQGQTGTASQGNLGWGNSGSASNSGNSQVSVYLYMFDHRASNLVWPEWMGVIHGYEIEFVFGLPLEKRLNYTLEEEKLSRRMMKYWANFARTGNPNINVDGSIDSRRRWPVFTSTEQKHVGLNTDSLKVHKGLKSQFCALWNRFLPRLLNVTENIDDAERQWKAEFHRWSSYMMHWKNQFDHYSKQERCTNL
# [1] = tested on: Bovine viral diarrhea virus 1; assay: Antiviral activity against BVDV infected in MDBK cells assessed as protection against virus-induced cytopathic effect after 3 days by MTS/PMS assay; assay type: functional, organism-based; settings: Bovine viral diarrhea virus isolates and strains, 72 h
# HeLa = assay: Cytotoxicity against human HeLa cells; assay type: functional, cell-based
# K562 = assay: Cytotoxicity against human K562 cells; assay type: functional, cell-based
# Klebsiella pneumoniae = assay: Antibacterial activity against Klebsiella pneumoniae assessed as growth inhibition; assay type: functional
smiles,measurement,setting,value
COc1cccc(-c2c(C#N)c(N)n(/N=C3\CCc4cc(OC)c(OC)cc43)c(=O)c2C#N)c1,zone of inhibition at 50000 µg/mL,Candida albicans,23 mm
COc1cc2c(c(N)c1OC)C/C(=C\c1cc(C)c(O)c(C)c1)C2=O,IC50,Jurkat,1 nM
NNc1ccc(C(=O)NCCCCCOc2ccc3c(c2)CC(CN2CCC(Cc4ccccc4)CC2)C3=O)cn1 (configuration not stated),IC50,Acetylcholinesterase,1090 nM
COc1cc2c(cc1OC)/C(=N/NC(N)=S)CC2,EC50,[1],5.35 µM
COc1cc(OC)c2c(c1)C(=O)CC2c1ccc(Br)cc1 (configuration not stated),IC50,HeLa,60 µM
same,IC50,K562,10 µM
COc1cc2c(cc1OC)C(=O)/C(=C/c1cccc(/C=C/c3ccc4ccc(Cl)cc4n3)c1)C2,growth inhibition (GI),Klebsiella pneumoniae,11.23%
